Results as given in US20170285010A1, “Analytical Methods and Arrays for Use in the Same” (SENZAGEN AB, priority 2014, published 2017).
Where two headings read alike, the source gives them in different places.

What was measured:
MUTZ-3 [1] = assay: GARD Respiratory Prediction Signature (GRPS) SVM classification of the independent test dataset; conditions: for SVM decision value: MUTZ-3, 24 h stimulation at GARD input concentration, 389 GRPS transcripts
Protocol: (§1) The human acute myelomonocytic leukemia cell line MUTZ-3[68,69] was obtained from Leibniz-lnstitut DSMZ-Deutsche Sammlung von Mikroorganismen and Zellkulturen (DSMZ, Braunschweig, Germany). Maintenance of cells, chemical stimulation of MUTZ-3 and all subsequent isolation of mRNA and preparation of cDNA were performed as previously described. In short, a phenotypic control of MUTZ-3 was performed using flow cytometry prior to chemical stimulation to ensure cells were in an immature state. The following FITC-conjugated mouse monoclonal antibodies (mAbs) were used: CD1a (DakoCytomation, Glostrup, Denmark), CD34, CD86, HLA-DR, IgG1 (BD Biosciences, Franklin Lakes, N.J.). The following PE-conjugated mouse monoclonal antibodies were used: CD14 (DakoCytomation), CD54, CD80, IgG1 (BD Biosciences). Cell viability was determined using Propidium Iodide (BD Biosciences) staining. Samples were run on FACSCanto II instrument. Data was acquired using FACS Diva software (BD Biosciences) and analyzed using FCS Express V4 (De Novo Software, Los Angeles, Calif.). Gating was performed to exclude cell debris and non-viable cells based on forward- and side-scattering properties and quadrants established using isotype-controls. During chemical exposure, cells were seeded at 200.000 cells/ml in 24-well plates and exposed to chemical compound at the GARD input concentration. Stimulated cells were harvested after 24 h incubation at 37° C., 5% CO2 and RNA was isolated with TRIzol® reagent (Life Technologies, Carlsbad, Calif.) using standardized protocols provided by the manufacturer. In parallel, a control of the maturity state of the cells was performed by flow cytometric analysis of CD86. Preparation of cDNA and hybridization, washing and scanning of the Human Gene 1.0 ST Arrays (Affymetrix, Santa Clara, Calif., USA) was performed, according to standardized protocols provided by the manufacturer (Affymetrix).
Gene expression data obtained from the Human Gene 1.0 ST Arrays were normalized using the Single-Channel array normalization (SCAN) algorithm, and potential batch effects between different set of experiments were adjusted using the ComBat empirical bayes method. Normalizations and batch adjustments were performed in R statistical software using the open software Bioconductor v2.14 [73] with the additional software packages SCAN.UPC [70] and sva . Normalized data was imported into Qlucore Omics Explorer 3.0 (Qlucore AB, Lund, Sweden) and visualized using Principal Component Analysis (PCA). Predictors were selected from a one-way ANOVA p-value filtration, using false discovery rate (FDR) to adjust for multiple hypothesis testing, comparing respiratory sensitizers and non-respiratory sensitizers. […] The Backward Elimination algorithm was modified to minimize the Kullback-Leibler error [53] rather than maximizing the Area Under the Receiver Operating Characteristic (AUC ROC), in order to enable signature optimization in cases where the AUC ROC reaches 1.0. […] The script for Backwards Elimination was programmed in R, with the additional package e1071 [78]. The method by which the predictive genomic biomarker signature was established was validated using cross-validation based on Support Vector Machines (SVM), based on a linear kernel, as described previously. In short, the training dataset was randomly divided into a new cross-validation training dataset comprising 70% of the stimulations, and a cross-validation test dataset comprising 30% of the stimulations. In addition, care was taken to maintain the same proportion between respiratory sensitizers and non-respiratory sensitizers as in the complete training dataset. A new predictive genomic biomarker signature was identified from the cross-validation training dataset using one-way ANOVA p-value filtration as described above.

MUTZ-3 [2] = assay: Chemical cytotoxicity, Rv90 (90% relative viability), propidium iodide staining
Source text: A panel of 32 reference chemicals comprising a selection of 10 well characterized respiratory sensitizers and 22 non-respiratory sensitizers, collectively termed the training dataset, were used for cell stimulations in order to establish the predictive genomic biomarker signature. […] Additionally, a panel of 25 chemicals, including 6 respiratory sensitizers and 19 non-respiratory sensitizers, collectively termed the independent test dataset, were used for cell stimulations in order to form an independent testset for validation of the identified predictive genomic biomarker signature. The independent training dataset comprised both control chemicals, included during the training of the model, as well as chemicals previously unseen during training of the model. […] All chemicals were purchased from Sigma-Aldrich (St. Louis, Mo., USA). Chemicals were dissolved and diluted into GARD input concentration in either water or DMSO prior to stimulation of cells. For chemicals dissolved in DMSO, the in-well concentration of DMSO was 0.1%. Monitoring of chemical cytotoxicity and establishment of GARD input concentration for each chemical compound was performed as previously described. […] Toxic compounds were used at a concentration yielding 90% relative viability (Rv90). The criterion that was first met determined the GARD input concentration for each compound.
as §1

CD86 = CD86 expression of MUTZ-3 cells following chemical stimulation (flow cytometry); assay type: cell-based, human; conditions: MUTZ-3, 24 h stimulation, compared with vehicle/unstimulated cells, student's t-test p<0.05
Protocol: CD86 expression of MUTZ-3 cells following chemical stimulations. […] Statistical significance was determined by student's t-test, comparing each stimulation with its corresponding vehicle, with p<0.05 indicated by *.
Maintenance of cells, chemical stimulation of MUTZ-3 and all subsequent isolation of mRNA and preparation of cDNA were performed as previously described [41,42]. In short, a phenotypic control of MUTZ-3 was performed using flow cytometry prior to chemical stimulation to ensure cells were in an immature state. The following FITC-conjugated mouse monoclonal antibodies (mAbs) were used: CD1a (DakoCytomation, Glostrup, Denmark), CD34, CD86, HLA-DR, IgG1 (BD Biosciences, Franklin Lakes, N.J.). The following PE-conjugated mouse monoclonal antibodies were used: CD14 (DakoCytomation), CD54, CD80, IgG1 (BD Biosciences). Cell viability was determined using Propidium Iodide (BD Biosciences) staining. Samples were run on FACSCanto II instrument. Data was acquired using FACS Diva software (BD Biosciences) and analyzed using FCS Express V4 (De Novo Software, Los Angeles, Calif.). Gating was performed to exclude cell debris and non-viable cells based on forward- and side-scattering properties and quadrants established using isotype-controls. During chemical exposure, cells were seeded at 200.000 cells/ml in 24-well plates and exposed to chemical compound at the GARD input concentration. Stimulated cells were harvested after 24 h incubation at 37° C., 5% CO2 and RNA was isolated with TRIzol® reagent (Life Technologies, Carlsbad, Calif.) using standardized protocols provided by the manufacturer. In parallel, a control of the maturity state of the cells was performed by flow cytometric analysis of CD86.
Prior to chemical challenge, cells were quality controlled by measuring the cellular expression of common myeloid and dendritic cell markers using flow cytometry. These markers included CD1a, CD14, CD34, CD54, CD80, CD86 and HLA-DR.

[3] = Max solubility of chemicals for establishing the GARD input concentration
[4] = concentration yielding 90% relative viability, MUTZ-3, Table 2
[5] = respiratory sensitizer if any replicate stimulation has SVM decision value >0
[6] = concentration yielding 90% relative viability, MUTZ-3, Table 1
[7] = reference compounds used during assay development (Table 1)

Structure (SMILES): CCCCO [1-Butanol]
- Classification Pos if 1 sample >0 (MUTZ-3 [1]): Sensitizer (key: Sensitizer: classified as a respiratory sensitizer if any of replicate stimulations have a SVM decision value > 0)
- SVM decision value (MUTZ-3 [1]; replicate 1): −0.32
- SVM decision value (MUTZ-3 [1]; replicate 2): 0.12

Structure (SMILES): O=[N+]([O-])c1ccc(Cl)c([N+](=O)[O-])c1 [2,4-dinitrochlorobenzene]
- Rv90 (MUTZ-3 [2]; [4]): 4 µM
- SVM decision value (MUTZ-3 [1]; replicate 1): −1.66
- SVM decision value (MUTZ-3 [1]; replicate 2): −1.18
- SVM decision value (MUTZ-3 [1]; replicate 3): −1.90
- Classification Pos if 1 sample >0 (MUTZ-3 [1]; [5]): Non-sensitizer

Structure (SMILES): Nc1ccccc1O [2-Aminophenol]
- Rv90 (MUTZ-3 [2]; [6]): 100 µM
- Chemically induced up-regulation of CD86 (CD86): up-regulation of CD86 was also observed

Structure (SMILES): C=CC(=O)OCCO [2-Hydroxyethyl acrylate]
- Rv90 (MUTZ-3 [2]; [6]): 100 µM

Structure (SMILES): Sc1nc2ccccc2s1 [2-mercaptobenzothiazole]
- SVM decision value (MUTZ-3 [1]; replicate 1): −0.44
- SVM decision value (MUTZ-3 [1]; replicate 2): −0.43
- SVM decision value (MUTZ-3 [1]; replicate 3): −0.57

Structure (SMILES): O=Cc1ccccc1 [Benzaldehyde]
- SVM decision value (MUTZ-3 [1]; replicate 1): −0.79
- SVM decision value (MUTZ-3 [1]; replicate 2): −0.87
- SVM decision value (MUTZ-3 [1]; replicate 3): −0.70
- Classification Pos if 1 sample >0 (MUTZ-3 [1]; [5]): Non-sensitizer

Structure (SMILES): Cc1ccc(S(=O)(=O)[N-]Cl)cc1.[Na+] [Chloramine T]
- SVM decision value (MUTZ-3 [1]; replicate 1): 0.52
- SVM decision value (MUTZ-3 [1]; replicate 2): 0.59
- Classification Pos if 1 sample >0 (MUTZ-3 [1]; [5]): Sensitizer (classified as a respiratory sensitizer if any of replicate stimulations have a SVM decision value > 0)

Structure (SMILES): Clc1ccccc1 [Chlorobenzene]
- SVM decision value (MUTZ-3 [1]; replicate 1): −1.03
- SVM decision value (MUTZ-3 [1]; replicate 2): −0.76
- SVM decision value (MUTZ-3 [1]; replicate 3): −1.15
- SVM decision value (MUTZ-3 [1]; replicate 4): 0.24
- SVM decision value (MUTZ-3 [1]; replicate 5): 0.06
- Classification Pos if 1 sample >0 (MUTZ-3 [1]; [5]): Sensitizer (classified as a respiratory sensitizer if any of replicate stimulations have a SVM decision value > 0)

Structure (SMILES): OCC=Cc1ccccc1 [Cinnamyl alcohol]
- Classification Pos if 1 sample >0 (MUTZ-3 [1]): Non-sensitizer
- SVM decision value (MUTZ-3 [1]; replicate 1): −0.57
- SVM decision value (MUTZ-3 [1]; replicate 2): −1.44
- SVM decision value (MUTZ-3 [1]; replicate 3): −1.26

Structure (SMILES): CCOC(=O)c1ccccc1C(=O)OCC [Diethyl phthalate]
- SVM decision value (MUTZ-3 [1]; replicate 1): −1.37
- SVM decision value (MUTZ-3 [1]; replicate 2): −0.96
- SVM decision value (MUTZ-3 [1]; replicate 3): −1.22
- Classification Pos if 1 sample >0 (MUTZ-3 [1]; [5]): Non-sensitizer

Structure (SMILES): C=CCc1ccc(O)c(OC)c1 [Eugenol]
- Rv90 (MUTZ-3 [2]; human): 300 µM
- Classification Pos if 1 sample >0 (MUTZ-3 [1]): Non-sensitizer
- SVM decision value (MUTZ-3 [1]; replicate 1): −1.67
- SVM decision value (MUTZ-3 [1]; replicate 2): −1.53
- SVM decision value (MUTZ-3 [1]; replicate 3): −1.51

Structure (SMILES): C=O [Formaldehyde]
- Rv90 (MUTZ-3 [2]; human): 80 µM

Structure (SMILES): O=CCCCC=O [Glutaraldehyde]
- Rv90 (MUTZ-3 [2]; human): 10 µM
- Chemically induced up-regulation of CD86 (CD86): statistically significant

Structure (SMILES): OCC(O)CO [Glycerol]
- Classification Pos if 1 sample >0 (MUTZ-3 [1]): Non-sensitizer
- SVM decision value (MUTZ-3 [1]; replicate 1): −1.05
- SVM decision value (MUTZ-3 [1]; replicate 2): −1.11
- SVM decision value (MUTZ-3 [1]; replicate 3): −0.77

Structure (SMILES): O=CC=O [Glyoxal]
- Rv90 (MUTZ-3 [2]; [4]): 300 µM
- SVM decision value (MUTZ-3 [1]; replicate 1): −1.02
- SVM decision value (MUTZ-3 [1]; replicate 2): −0.69
- SVM decision value (MUTZ-3 [1]; replicate 3): −0.56
- Classification Pos if 1 sample >0 (MUTZ-3 [1]; [5]): Non-sensitizer

Structure (SMILES): CC=Cc1ccc(O)c(OC)c1 [Isoeugenol]
- Rv90 (MUTZ-3 [2]; human): 300 µM

Structure (SMILES): CC(O)C(=O)O (centres unmarked) [Lactic acid]
- SVM decision value (MUTZ-3 [1]; replicate 1): −1.20
- SVM decision value (MUTZ-3 [1]; replicate 2): −0.81
- SVM decision value (MUTZ-3 [1]; replicate 3): −0.89

Structure (SMILES): O=C=Nc1ccc(Cc2ccc(N=C=O)cc2)cc1 [Methylene diphenol diisocyanate]
- Max solubility [3, 7]: 50 µM

Structure (SMILES): CCCCCCCC(=O)O [Octanoic acid]
- Classification Pos if 1 sample >0 (MUTZ-3 [1]): Non-sensitizer
- SVM decision value (MUTZ-3 [1]; replicate 1): −0.65
- SVM decision value (MUTZ-3 [1]; replicate 2): −0.79
- SVM decision value (MUTZ-3 [1]; replicate 3): −1.22

Structure (SMILES): Oc1ccccc1 [Phenol]
- Classification Pos if 1 sample >0 (MUTZ-3 [1]): Non-sensitizer

Structure (SMILES): O=C1OC(=O)c2ccccc21 [Phtalic Anhydride]
- SVM decision value (MUTZ-3 [1]; replicate 1): 0.20
- SVM decision value (MUTZ-3 [1]; replicate 2): −0.12
- Classification Pos if 1 sample >0 (MUTZ-3 [1]; [5]): Sensitizer (classified as a respiratory sensitizer if any of replicate stimulations have a SVM decision value > 0)
- Max solubility ([3]; chemicals of the independent dataset (Table 2)): 200 µM
- Max solubility [3, 7]: 200 µM

Structure (SMILES): C1CNCCN1 [Piperazine]
- Classification Pos if 1 sample >0 (MUTZ-3 [1]): Non-sensitizer
- SVM decision value (MUTZ-3 [1]; replicate 1): −0.05
- SVM decision value (MUTZ-3 [1]; replicate 2): −0.12

Structure (SMILES): Oc1cccc(O)c1 [Resorcinol]
- Classification Pos if 1 sample >0 (MUTZ-3 [1]): Non-sensitizer
- SVM decision value (MUTZ-3 [1]; replicate 1): −1.01
- SVM decision value (MUTZ-3 [1]; replicate 2): −0.99
- SVM decision value (MUTZ-3 [1]; replicate 3): −1.40

Structure (SMILES): O=C(O)c1ccccc1O [Salicylic acid]
- Classification Pos if 1 sample >0 (MUTZ-3 [1]): Non-sensitizer
- SVM decision value (MUTZ-3 [1]; replicate 1): −0.73
- SVM decision value (MUTZ-3 [1]; replicate 2): −1.08
- SVM decision value (MUTZ-3 [1]; replicate 3): −1.13

Structure (SMILES): CCCCCCCCCCCCOS(=O)(=O)[O-].[Na+] [Sodium dodecyl sulphate]
- Rv90 (MUTZ-3 [2]; [4]): 200 µM
- Classification Pos if 1 sample >0 (MUTZ-3 [1]): Non-sensitizer
- SVM decision value (MUTZ-3 [1]; replicate 1): −1.49
- SVM decision value (MUTZ-3 [1]; replicate 2): −0.80
- SVM decision value (MUTZ-3 [1]; replicate 3): −1.30

Structure (SMILES): O=C(O)c1ccc(O)cc1 [p-hydroxybenzoic acid]
- Classification Pos if 1 sample >0 (MUTZ-3 [1]): Non-sensitizer
- SVM decision value (MUTZ-3 [1]; replicate 1): −0.81
- SVM decision value (MUTZ-3 [1]; replicate 2): −0.56
- SVM decision value (MUTZ-3 [1]; replicate 3): −1.09

Structure (SMILES): Nc1ccc(N)cc1 [p-phenylenediamine]
- Rv90 (MUTZ-3 [2]; [4]): 75 µM
- SVM decision value (MUTZ-3 [1]; replicate 1): −1.38
- SVM decision value (MUTZ-3 [1]; replicate 2): −1.19
- SVM decision value (MUTZ-3 [1]; replicate 3): −1.80
- Classification Pos if 1 sample >0 (MUTZ-3 [1]; [5]): Non-sensitizer
